Reference: PMC12670395, “Structural Rationalization of IPMK Inhibitor Potency” (Journal of Medicinal Chemistry, 2025)
Several values for one entry are separate records, joined by “and”; a condition that tells them apart may be missing. Equal values may be shown once.

Tests used:
human IPMK [1] = target: T1, human IPMK (Homo sapiens, UniProt Q8NFU5); assay: IPMK kinase activity assay (33P-radiolabeled HPLC assay); type: biochemical; settings: 33P-1,3,4,5-IP4 to InsP5, 1.0 mM ATP, 2 nM IPMK; mean with standard error, n = 3 (compound 1 n = 5)
T1 sequence (Q8NFU5 with tags, fused parts or gaps): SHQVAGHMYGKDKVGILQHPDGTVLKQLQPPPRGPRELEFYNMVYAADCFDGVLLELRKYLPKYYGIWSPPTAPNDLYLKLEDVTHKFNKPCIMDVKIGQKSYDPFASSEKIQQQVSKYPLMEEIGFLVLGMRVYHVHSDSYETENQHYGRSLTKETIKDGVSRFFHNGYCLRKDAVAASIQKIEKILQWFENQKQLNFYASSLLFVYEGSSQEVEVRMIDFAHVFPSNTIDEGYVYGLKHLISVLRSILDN
Protocol: (§1) For all enzyme assays, a serial dilution of the enzyme was performed in the kinase assay to determine the linear range of the enzyme concentration to be used.
(§2) We prepared ^33P-1,3,4,5-IP4 by incubating 1,4,5-IP3, ^33P-ATP, and IPMK, isolated the product with a 30 K d MW cutoff filter. Each reaction contained trace amounts (4,00,000 disintegrations per minute (dpm)) of ^33P-1,3,4,5-IP4 in a 100 μL incubation containing 20 mM HEPES (pH 7.2), 100 mM KCl, 3.5 mM MgCl2, 20 μM EDTA, 1.0 mM ATP, 1 μM 1,3,4,5-IP4, plus test compound in DMSO (or vehicle control) plus 2 nM IPMK. Assays were analyzed by HPLC, using a PartiSphere SAX 120, 5 μm, 4.6 × 125 mm HPLC column with a 250 μL injection volume. The elution gradient was generated by mixing Buffer A (1 mm Na2EDTA) with Buffer B (Buffer A plus 2.5 M NH4H2PO4, pH 3.9) and monitored by a β-RAM 6 in-line scintillation detector. A 1.0 mL/min elute was mixed with 0.5 or 2.5 mL/min monoflow scintillation liquid for ^33P or ^3H, respectively. Radiochromatography data were collected and analyzed using Laura software (v6.1.2.36).

human IPMK [2] = assay: as above; type: biochemical; settings: for IP6K1/IPMK: ratio of IP6K1 IC50 to IPMK IC50; for selectivity for IPMK over IP6K1: from IC50 values
Protocol: as §1, §2

human IP6K1 = target: T2, human IP6K1 (Homo sapiens, UniProt Q92551); assay: IP6K kinase activity assay (enzyme-coupled, malachite green Pi release); type: biochemical; settings: 100 nM IP6K1, 25 μM InsP6, 500 μM ATP, 37 °C; mean with standard error, n = 3
T2 construct: made in house
T2 sequence (Q92551 whole entry): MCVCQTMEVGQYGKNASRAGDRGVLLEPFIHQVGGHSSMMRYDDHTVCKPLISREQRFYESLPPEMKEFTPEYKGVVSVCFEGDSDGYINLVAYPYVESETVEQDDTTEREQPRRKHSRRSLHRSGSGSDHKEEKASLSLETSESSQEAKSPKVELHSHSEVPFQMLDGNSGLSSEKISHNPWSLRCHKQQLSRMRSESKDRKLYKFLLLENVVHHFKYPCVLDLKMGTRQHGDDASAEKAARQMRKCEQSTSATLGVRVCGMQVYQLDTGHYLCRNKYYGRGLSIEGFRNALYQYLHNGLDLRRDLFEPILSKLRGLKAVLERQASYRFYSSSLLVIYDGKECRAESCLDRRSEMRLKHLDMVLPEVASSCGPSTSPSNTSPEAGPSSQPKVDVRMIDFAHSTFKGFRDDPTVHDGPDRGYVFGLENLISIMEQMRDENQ
Protocol: as §1
An enzyme-coupled assay was used to measure IP6K activity. Enzyme activity was assayed at 37 °C in 50 μL of reaction mixtures containing 100 nM IP6K1, 5.0 μM human Dipp1, 20 mM HEPES (pH 7.2), 100 mM KCl, 3.5 mM MgCl2, 20 μM EDTA, 25 μM InsP6, and 500 μM ATP for 60–120 min. Pi release was determined with a malachite green colorimetric assay. Reactions were quenched by the addition of 100 μL of phosphate detection reagent (36:1 v/v of 2.6% sodium molybdate in 2.5 M HCl: 0.126% malachite green chloride). Phosphate (Pi) release was quantified from the absorbance at 620 nm by using appropriate standards.

IP3K-A = IP3K-A (Homo sapiens, UniProt P23677); assay: IP3K kinase activity assay ([3H]-InsP3, HPLC); type: biochemical; settings: 1.0 μM 1,4,5-InsP3, 1.0 mM ATP, 0.25 nM IP3K-A; standard error, n = 3
Sequence of IP3K-A (P23677 whole entry): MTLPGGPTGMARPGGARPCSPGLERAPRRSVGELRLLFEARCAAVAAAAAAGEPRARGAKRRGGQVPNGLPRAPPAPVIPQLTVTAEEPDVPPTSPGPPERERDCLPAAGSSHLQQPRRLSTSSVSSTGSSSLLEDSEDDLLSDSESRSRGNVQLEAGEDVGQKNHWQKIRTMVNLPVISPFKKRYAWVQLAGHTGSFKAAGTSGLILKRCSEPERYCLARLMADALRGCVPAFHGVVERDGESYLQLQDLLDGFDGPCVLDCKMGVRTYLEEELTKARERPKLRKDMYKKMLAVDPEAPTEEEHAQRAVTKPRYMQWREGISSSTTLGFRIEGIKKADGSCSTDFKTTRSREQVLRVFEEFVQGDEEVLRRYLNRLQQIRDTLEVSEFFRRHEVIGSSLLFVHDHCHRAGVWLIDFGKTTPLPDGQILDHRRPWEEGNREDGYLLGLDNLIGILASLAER
Protocol: as §1
Each reaction contained 1.0 μM [^3H]-1,4,5-InsP3 (approximately 30,000 dpm; American Radiolabeled Chemicals, Inc., ART 0270) in a 100 μL incubation containing 20 mM HEPES (pH 7.2), 100 mM KCl, 3.5 mM MgCl2, 20 μM EDTA, 1.0 mM ATP, 1.0 μM 1,4,5-InsP3, plus test compound in DMSO (or vehicle control), and 0.25 nM IP3K-A. Reactions were quenched after 60 min by the addition of 2 volumes of 0.2 M NH4H2PO4, pH 3.9 and 20 mM EDTA and stored at 27 °C. Assays were analyzed by HPLC, using a PartiSphere SAX 120 Å, 5 μm, 4.6 × 125 mm HPLC column with a 250 μL injection volume. The elution gradient was generated by mixing Buffer A (1 mm Na2EDTA) with Buffer B (Buffer A plus 2.5 M NH4H2PO4, pH 3.9) and monitored by a β-RAM 6 in-line scintillation detector. A 1.0 mL/min elute was mixed with 0.5 or 2.5 mL/min monoflow scintillation liquid for ^33P or ^3H, respectively. Radiochromatography data were collected and analyzed using Laura software (v6.1.2.36).

human IPMK [3] = target: T1, human IPMK; assay: Isothermal titration calorimetry (ITC); type: binding; settings: 15 μM IPMK in cell, 150 μM inhibitor in syringe, 25 °C, pH 7.2
Protocol: Isothermal calorimetry experiments were performed using a MicroCal PEAQ-ITC (Malvern Panalytical) with 15 μM recombinant human IPMK in the sample cell and 150 μM inhibitor 1 in the syringe, each of which was maintained at 25 °C in buffer containing 20 mM Tris-HCl, pH 7.2, 150 mM KCl, 0.05 mM EDTA, and 0.8 mM MgCl2. The sample cell (volume = 204 μL) and the syringe were cleaned before each run. Thermograms were constructed from 20 injections, each of which involved 2.0 μL of ligand delivered for 4.0 s, with an equilibration time of 150–300 s between each injection. The stirring speed was set to 750 rpm. Data were fitted to a single binding site model using the analysis software provided by the manufacturer, as supported by X-ray crystallography. At least three runs were performed.

[4] = tested on: human U251-MG glioblastoma cells; parameters: method as in other studies (number not given); settings: ref other studies (number not given); cited from earlier work
[5] = parameters: method as in recent work from another group (number not given); settings: mice, intraperitoneal injection; ref recent work from another group (number not given); cited from earlier work

IC50 (human IPMK [1])	IP6K1/IPMK (human IPMK [2])	IC50 (human IP6K1)	selectivity for IPMK over IP6K1 (human IPMK [2])	IC50 (IP3K-A) [nM]	Kd (human IPMK [3]) [nM]	SMILES	cellular growth [4]	inositol phosphate metabolism [4]	clearance, half-life, and volume of distribution [5]
11 ± 2 nM	115	1270 nM and 1300 nM				c1ccc(Oc2ccc(-c3onc4ccc(-c5nnn[nH]5)cc34)cc2)cc1 [Compound 9]			
2.5 ± 0.3 nM	9.2					FC(F)(F)c1ccc(-c2onc3ccc(-c4nnn[nH]4)cc23)cc1 [Compound 7]			
3.3 ± 0.4 nM	13	59 ± 14 nM				FC(F)(F)Oc1ccc(-c2onc3ccc(-c4nnn[nH]4)cc23)cc1 [Compound 8]			
3.4 ± 0.5 nM	8.8					c1cc(OC2CCNCC2)cc(-c2onc3ccc(-c4nnn[nH]4)cc23)c1 [Compound 12]			
9.5 ± 2 nM	1.9	19 ± 4 nM				Clc1cnc(Oc2cccc(-c3onc4ccc(-c5nnn[nH]5)cc34)c2)c(Cl)c1 [Compound 13]			
1.1 nM and 1.13 nM	36	40.1 ± 4 nM				O=C(Nc1cccc(-c2onc3ccc(-c4nnn[nH]4)cc23)c1)C1CCCC1 [Compound 15]			
3.5 ± 0.4 nM	10	35.8 nM and 36 nM				O=C(Nc1ccc(-c2onc3ccc(-c4nnn[nH]4)cc23)cc1)C1CC1 [Compound 10]			
3.8 ± 0.4 nM	10	38 ± 8 nM	10 fold			c1ccc(-c2onc3ccc(-c4nnn[nH]4)cc23)cc1 [Compound 6]			
12.8 ± 2 nM	11.4	146 ± 23 nM	approximately 10 fold	8000	11	Cc1cc(C)cc(-c2onc3ccc(/C=C/C(=O)O)cc23)c1 [Compound 1]			
3 nM and 2.8 nM						c1cc(-c2onc3ccc(-c4nnn[nH]4)cc23)cc(C2CCN(C3CCC3)CC2)c1 [Compound 14]	decrease	decrease	reasonable
1.9 ± 0.2 nM	13	24 ± 6 nM				Cc1cc(C)cc(-c2onc3ccc(-c4nnn[nH]4)cc23)c1 [Compound 4]			
29 ± 5 nM	3					Cc1cc(C)cc(-c2onc3ccc(C(=O)O)cc23)c1 [Compound 3]			
8.1 ± 2 nM	5.6	45 ± 7 nM				Cc1cc(C)cc(-c2onc3ccc([C@H]4C[C@@H]4C(=O)O)cc23)c1 [Compound 2]			
0.99 nM and 1 nM	52	52 nM and 51.8 nM	50 fold			O=C(Nc1cccc(-c2onc3ccc(-c4nnn[nH]4)cc23)c1)C1CC1 [Compound 11]			
